In patent US20110230472A1, “RING-FUSED AZOLE DERIVATIVE HAVING PI3K-INHIBITING ACTIVITY” (Shionogi & Co., Ltd., priority 2008, published 2011) one finds inhibition data, which are given here for 65 compounds.

Some results are limits rather than exact numbers.

For the experiment, the target named is PI-3 kinase γ (Homo sapiens, UniProt P48736). As to the kind of experiment: PI3Kγ inhibitory activity, PI3-kinase HTRF assay (inhibition ratio). It is filed as biochemical. The note with it: 0.5 h; compound at 10 μmol/L. The method in brief: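 PI3Kγ preincubated 10 min with compound and PIP2 substrate (MgCl2, DTT), then ATP added for 30 min at room temperature. PIP3 detected by HTRF (665/620 nm ratio) after 18 h. Inhibition ratio at 50 or 10 μmol/L, normalised to no-compound and no-enzyme controls.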
Sequence of PI-3 kinase γ (P48736 whole entry): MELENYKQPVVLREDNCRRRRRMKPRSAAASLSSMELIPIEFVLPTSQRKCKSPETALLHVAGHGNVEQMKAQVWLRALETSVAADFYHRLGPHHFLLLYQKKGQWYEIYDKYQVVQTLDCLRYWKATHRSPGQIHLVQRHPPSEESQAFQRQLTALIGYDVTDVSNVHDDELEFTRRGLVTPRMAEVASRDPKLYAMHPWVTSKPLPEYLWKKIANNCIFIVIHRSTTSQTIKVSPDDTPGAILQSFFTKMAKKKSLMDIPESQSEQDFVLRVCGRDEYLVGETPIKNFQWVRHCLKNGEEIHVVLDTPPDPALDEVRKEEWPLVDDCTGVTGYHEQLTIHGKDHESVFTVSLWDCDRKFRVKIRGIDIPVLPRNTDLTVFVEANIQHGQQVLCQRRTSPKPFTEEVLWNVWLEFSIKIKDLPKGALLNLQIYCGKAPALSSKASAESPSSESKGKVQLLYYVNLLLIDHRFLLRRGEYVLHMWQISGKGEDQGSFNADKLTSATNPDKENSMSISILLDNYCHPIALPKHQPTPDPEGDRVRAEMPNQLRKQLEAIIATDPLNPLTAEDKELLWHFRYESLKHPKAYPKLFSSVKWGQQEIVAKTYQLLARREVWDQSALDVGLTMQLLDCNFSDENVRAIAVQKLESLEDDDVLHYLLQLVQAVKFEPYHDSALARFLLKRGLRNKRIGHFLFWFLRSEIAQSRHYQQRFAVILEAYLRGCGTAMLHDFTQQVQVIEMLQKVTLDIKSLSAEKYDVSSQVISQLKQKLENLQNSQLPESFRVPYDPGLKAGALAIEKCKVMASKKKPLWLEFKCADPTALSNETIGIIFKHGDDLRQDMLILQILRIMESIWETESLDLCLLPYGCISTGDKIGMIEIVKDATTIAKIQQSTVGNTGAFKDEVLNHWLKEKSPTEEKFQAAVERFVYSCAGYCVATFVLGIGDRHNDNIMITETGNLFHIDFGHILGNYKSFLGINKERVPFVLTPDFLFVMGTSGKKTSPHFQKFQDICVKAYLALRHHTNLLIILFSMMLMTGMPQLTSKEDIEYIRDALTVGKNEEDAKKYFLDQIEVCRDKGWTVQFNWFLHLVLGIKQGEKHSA
Take `CC(C)c1cc(C(=O)Nc2cc3n(n2)CCN3c2ccc3c(c2)CCN(C)C3=O)cs1` [Compound I-427]: the inhibition at 10 µM came to 88%.
For the compound `CC(C)NS(=O)(=O)c1cc(C(=O)Nc2cc3n(n2)CCN3c2ccc3c(c2)CCN(C)C3=O)cs1` [Compound I-428], the inhibition at 10 µM is 90%.
For the compound `COc1cc(N2CCc3nc(NC(=O)Nc4ccccc4Cl)sc3C2)nc(OC)n1` [Compound I-430], the inhibition at 10 µM is 84%.
As for `CC(C)N(C)C(=O)c1cc(C(=O)Nc2cc3n(n2)CCN3c2ccc3c(c2)CCN(C)C3=O)cs1` [Compound I-433], the inhibition at 10 µM is at least 95%.
Take `CN1CCc2cc(N3CCn4nc(NC(=O)c5csc(S(=O)(=O)N6CCCC6)c5)cc43)ccc2C1=O` [Compound I-436]: the inhibition at 10 µM was at least 95%.
In the case of `CNS(=O)(=O)c1cc(C(=O)Nc2cc3n(n2)CCN3c2ccc3c(c2)CCN(C)C3=O)cs1` [Compound I-437] it was at least 95%; in that of `CN1CCc2cc(N3CCn4nc(NC(=O)c5csc(C(=O)NC(C)(C)C)c5)cc43)ccc2C1=O` [Compound I-438], 86%.
In the case of `CN1CCc2cc(N3CCn4nc(NC(=O)c5csc(C(=O)NCC(C)(C)C)c5)cc43)ccc2C1=O` [Compound I-439], the inhibition at 10 µM was at least 95%.
Consider `CC(=O)c1ccc(C(=O)Nc2cc3n(n2)CCN3c2ccc3c(c2)CCN(C)C3=O)s1` [Compound I-440], for which the inhibition at 10 µM worked out at 92%.
In the case of `CC(C)NC(=O)c1ccccc1NC(=O)Nc1nc2c(s1)CN(C(=O)OCc1ccccc1)CC2` [Compound I-441] it was 88%; in that of `Cc1ccsc1C(=O)Nc1cc2n(n1)CCN2c1ccc2c(c1)CCN(C)C2=O` [Compound I-444], 84%; in that of `CN1CCc2cc(N3CCn4nc(NC(=O)c5sccc5Cl)cc43)ccc2C1=O` [Compound I-445], 89%.
With `Cc1ncsc1C(=O)Nc1cc2n(n1)CCN2c1ccc2c(c1)CCN(C)C2=O` [Compound I-449], the inhibition at 10 µM is at least 95%.
Turning to `CN1CCc2cc(N3CCn4nc(NC(=O)C(=O)c5cccs5)cc43)ccc2C1=O` [Compound I-450], the inhibition at 10 µM was at least 95%.
`CN(C)C(=O)c1ccc(C(=O)Nc2cc3n(n2)CCN3c2ccc3c(c2)CCN(C)C3=O)s1` [Compound I-451]: the inhibition at 10 µM amounted to 90%.
Consider `CN1CCc2cc(N3CCn4nc(NC(=O)N5CCCC5)cc43)ccc2C1=O` [Compound I-453], for which the inhibition at 10 µM turned out to be 76%.
Consider `COc1cc(N2CCc3nc(NC(=O)c4ccc(C)o4)sc3C2)nc(OC)n1` [Compound I-456], for which the inhibition at 10 µM was determined as 87%.
With `CCOc1ccc(C(=O)Nc2nc3c(s2)CN(c2cc(OC)nc(OC)n2)CC3)o1` [Compound I-457], the inhibition at 10 µM came out at 88%.
In the case of `COc1cc(N2CCc3nc(NC(=O)c4ccc(C)s4)sc3C2)nc(OC)n1` [Compound I-458] it was 92%; in that of `COc1cc(N2CCc3nc(NC(=O)c4ccsc4)sc3C2)nc(OC)n1` [Compound I-459], 92%; in that of `CN1CCc2cc(N3CCn4nc(NC(=O)c5cccc(O)c5)cc43)ccc2C1=O` [Compound I-461], 95%.
In the case of `COc1cccc(C(=O)Nc2cc3n(n2)CCN3c2ccc3c(c2)CCN(C)C3=O)c1` [Compound I-462] it was at least 95%.
`CC(C)Oc1cccc(C(=O)Nc2cc3n(n2)CCN3c2ccc3c(c2)CCN(C)C3=O)c1` [Compound I-463]: the inhibition at 10 µM was at least 95%.
As for `CN1CCc2cc(N3CCn4nc(NC(=O)c5cccc(F)c5)cc43)ccc2C1=O` [Compound I-464], the inhibition at 10 µM is at least 95%.
For the compound `CN1CCc2cc(N3CCn4nc(NC(=O)c5cccc(C(=O)OC(C)(C)C)c5)cc43)ccc2C1=O` [Compound I-465], the inhibition at 10 µM is at least 95%.
With `CN1CCc2cc(N3CCn4nc(NC(=O)c5cccc(NC(=O)OC(C)(C)C)c5)cc43)ccc2C1=O` [Compound I-466], the inhibition at 10 µM is 83%.
As for `COCn1ccc(C(=O)Nc2cc3n(n2)CCN3c2ccc3c(c2)CCN(C)C3=O)n1` [Compound I-467], the figure is at least 95%.
With `CC(Oc1cccc(C(=O)Nc2cc3n(n2)CCN3c2ccc3c(c2)CCN(C)C3=O)c1)C(N)=O` (centres unmarked) [Compound I-468], the inhibition at 10 µM is at least 95%.
Regarding `CN1CCc2cc(N3CCn4nc(NC(=O)c5cccc(OC(C)(C)C(=O)OC(C)(C)C)c5)cc43)ccc2C1=O` [Compound I-469], the inhibition at 10 µM is 85%.
For `CC(C)NC(=O)Nc1cccc(C(=O)Nc2cc3n(n2)CCN3c2ccc3c(c2)CCN(C)C3=O)c1` [Compound I-470], the inhibition at 10 µM is 79%.
As for `CC(=O)Nc1nc2ccn(-c3cccc(Cl)c3)c2s1` [Compound I-471], the figure is 91%.
In the case of `CN1CCc2cc(N3CCn4nc(NC(=O)c5cccc(C(=O)O)c5)cc43)ccc2C1=O` [Compound I-472], the inhibition at 10 µM is at least 95%.
On to `CN1CCc2cc(N3CCn4nc(NC(=O)c5cccc(N)c5)cc43)ccc2C1=O` [Compound I-473], for which the inhibition at 10 µM was at least 95%.
For the compound `CN1CCc2cc(N3CCn4nc(NC(=O)c5cccc(OC(C)(C)C(=O)O)c5)cc43)ccc2C1=O` [Compound I-474], the inhibition at 10 µM is at least 95%.
As for `CCCOc1ccc(C(=O)Nc2cc3n(n2)CCN3c2ccc3c(c2)CCN(C)C3=O)cc1` [Compound I-476], the inhibition at 10 µM is 94%.
With `CCCCOc1ccc(C(=O)Nc2cc3n(n2)CCN3c2ccc3c(c2)CCN(C)C3=O)cc1` [Compound I-477], the inhibition at 10 µM was 82%.
Turning to `CN1CCc2cc(N3CCn4nc(NC(=O)c5ccc(NC(=O)OC(C)(C)C)cc5)cc43)ccc2C1=O` [Compound I-480], the inhibition at 10 µM is 86%.
Consider `CN1CCc2cc(N3CCn4nc(NC(=O)c5ccc(S(C)(=O)=O)cc5)cc43)ccc2C1=O` [Compound I-481], for which the inhibition at 10 µM turned out to be 92%.
In the case of `COC(=O)Nc1ccccc1C(=O)Nc1cc2n(n1)CCN2c1ccc2c(c1)CCN(C)C2=O` [Compound I-482] it was at least 95%; in that of `COc1ccc(C(=O)N2CCc3nc(NC(=O)Nc4ccccc4C(=O)NC(C)C)sc3C2)cc1` [Compound I-483], at least 95%.
As for `COc1cccc(C(=O)N2CCc3nc(NC(=O)Nc4ccccc4C(=O)NC(C)C)sc3C2)c1` [Compound I-484], the figure is at least 95%; as for `COc1ccccc1C(=O)N1CCc2nc(NC(=O)Nc3ccccc3C(=O)NC(C)C)sc2C1` [Compound I-485], 79%; as for `CC(C)NC(=O)c1ccccc1NC(=O)Nc1nc2c(s1)CN(C(=O)c1ccccc1)CC2` [Compound I-488], 88%.
Regarding `CN1CCc2cc(N3CCn4nc(NC(=O)c5ccc(N)cc5)cc43)ccc2C1=O` [Compound I-489], the inhibition at 10 µM is at least 95%.
As for `CN1CCc2cc(N3CCn4nc(NC(=O)c5ccccc5NC(=O)OC(C)(C)C)cc43)ccc2C1=O` [Compound I-493], the inhibition at 10 µM was 91%.
Consider `CNc1ccccc1C(=O)Nc1cc2n(n1)CCN2c1ccc2c(c1)CCN(C)C2=O` [Compound I-494], for which the inhibition at 10 µM was found to be 78%.
As for `CC(C)NC(=O)Cc1cc(C(=O)Nc2cc3n(n2)CCN3c2ccc3c(c2)CCN(C)C3=O)cs1` [Compound I-495], the figure is at least 95%.
Take `CCCNC(=O)Cc1cc(C(=O)Nc2cc3n(n2)CCN3c2ccc3c(c2)CCN(C)C3=O)cs1` [Compound I-496]: the inhibition at 10 µM is at least 95%.
In the case of `CN1CCc2cc(N3CCn4nc(NC(=O)c5ccccc5N)cc43)ccc2C1=O` [Compound I-500], the inhibition at 10 µM was 81%.
As for `CCOC(=O)CNC(=O)Nc1cc2n(n1)CCN2c1ccc2c(c1)CCN(C)C2=O` [Compound I-501], the figure is 81%; as for `CN1CCc2cc(N3CCn4nc(NC(=O)[C@@H]5CCC(=O)N5)cc43)ccc2C1=O` [Compound I-506], 84%.
Regarding `CC(C)NC(=O)c1ccccc1NC(=O)Nc1nc2c(s1)CN(C(=O)c1cccc(Cl)c1)CC2` [Compound I-511], the inhibition at 10 µM turned out to be 75%.
`Cc1cccc(C(=O)N2CCc3nc(NC(=O)Nc4ccccc4C(=O)NC(C)C)sc3C2)c1` [Compound I-514]: the inhibition at 10 µM amounted to 76%.
As for `Cc1ccc(C(=O)N2CCc3nc(NC(=O)Nc4ccccc4C(=O)NC(C)C)sc3C2)cc1` [Compound I-515], the figure is 85%; as for `CN1CCc2cc(N3CCn4nc(NC(=O)NCC(=O)O)cc43)ccc2C1=O` [Compound I-522], 94%; as for `CN1CCc2cc(N3CCn4nc(NC(=O)c5ccc(C(=O)O)cc5)cc43)ccc2C1=O` [Compound I-524], 92%.
`CN1CCc2cc(N3CCn4nc(NC(=O)c5cnc(N6CCC[C@H]6C(=O)OC(C)(C)C)s5)cc43)ccc2C1=O` [Compound I-525]: the inhibition at 10 µM came to 94%.
`CCCNS(=O)(=O)c1ccc(C(=O)Nc2cc3n(n2)CCN3c2ccc3c(c2)CCN(C)C3=O)cc1` [Compound I-526]: the inhibition at 10 µM is 90%.
Turning to `CC(C)NS(=O)(=O)c1ccc(C(=O)Nc2cc3n(n2)CCN3c2ccc3c(c2)CCN(C)C3=O)cc1` [Compound I-527], the inhibition at 10 µM turned out to be 79%.
For `COc1cc(N2CCc3nc(NC(=O)N4CC(C(=O)NC(C)C)C4)sc3C2)nc(OC)n1` [Compound I-528], the inhibition at 10 µM worked out at 76%.
Turning to `COc1cc(N2CCc3nc(NC(=O)C4CN(C(=O)OC(C)(C)C)C4)sc3C2)nc(OC)n1` [Compound I-529], the inhibition at 10 µM stood at 82%.
On to `CN1CCc2cc(N3CCn4nc(NC(=O)NCCC(=O)OC(C)(C)C)cc43)ccc2C1=O` [Compound I-530], for which the inhibition at 10 µM was 92%.
For the compound `CC(=O)Nc1ncc(C(=O)Nc2cc3n(n2)CCN3c2ccc3c(c2)CCN(C)C3=O)s1` [Compound I-531], the inhibition at 10 µM came out at 75%.
As to `CC(C)CC(=O)Nc1ncc(C(=O)Nc2cc3n(n2)CCN3c2ccc3c(c2)CCN(C)C3=O)s1` [Compound I-533], the inhibition at 10 µM amounted to 95%.
For `CC(C)CNC(=O)c1ccc(C(=O)Nc2cc3n(n2)CCN3c2ccc3c(c2)CCN(C)C3=O)cc1` [Compound I-534], the inhibition at 10 µM is 91%.

By inhibition is commonly meant the relative decrease from the control value, in per cent.
